According to PubChem BioAssay AID1159562 (GlaxoSmithKline (GSK), 2015):
pIC50: −log10 of the molar value. Active and inactive are the calls of the source. How the calls were made is not given here.

Test system: Trypanosoma brucei growth inhibition, luminescence
Test: antitrypanosomal activity against T. brucei – luminescence (AID 1159562);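 further: parasites grew with compound for 24 h before the luminescence read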

Row | Compound | IC50 | pIC50
1 | O=[N+]([O-])c1ccc(C2=CC(c3ccccc3)=NCCN2)cc1 | > 13 µM (inactive) | 
2 | CN(Cc1nc2c(C(=O)N3CCN(Cc4ccccc4)CC3)cccc2[nH]1)C1CCCc2cccnc21 (centres undefined) |  | 6.00
3 | CS(=O)(=O)c1cccc(-c2cnc(N)c3c(-c4ccc(CO)cc4)csc23)c1 |  | 5.30
4 | O=C(Cn1cnc2cc([N+](=O)[O-])ccc2c1=O)NCCc1ccc(Cl)cc1Cl | > 40 µM (inactive) | 
5 | O=C(NC(CO)c1ccc(F)cc1)c1ccc(-c2c[nH]c3ncccc23)s1 (centres undefined) |  | 6.10
6 | Cc1ccc(NC(=O)c2ccc(Cl)c(NC(=O)c3ccc([N+](=O)[O-])cc3)c2)cc1 |  | 4.80
7 | CCN(CC)c1ncc(C(=O)c2ccc([N+](=O)[O-])o2)s1 |  | 6.40
8 | CS(=O)(=O)NC1CCC(Nc2ncc(Br)c(Nc3ccccc3C(N)=O)n2)CC1 (centres undefined) |  | 7.10
9 | O=c1ccc2ccc(F)c3c2n1C[C@H]3CN1CCN(CC(O)c2cc3c(cn2)OCS3)CC1 (some centres undefined) |  | 6.40
10 | O=C(c1ccc(OCCCc2cnc[nH]2)cc1)C1CC1 | > 40 µM (inactive) | 
11 | COc1cc(C2SCC(=O)Nc3c2c(C)nn3-c2nc3ccccc3s2)cc(OC)c1O (centres undefined) | > 40 µM (inactive) | 
12 | COc1ccc(C(=O)Nc2ccc(NC(=O)CO)cc2)cc1 |  | 6.60
13 | CN(C)Cc1ccc(-c2ccc(S(=O)(=O)NCC3CCCO3)c(F)c2)cc1 (centres undefined) |  | 4.40
14 | O=C(NCC(c1cccs1)N1CCOCC1)c1ccc([N+](=O)[O-])o1 (centres undefined) |  | 6.49
15 | CCCNC(=O)Nc1cccc(-c2nc3ncccc3o2)c1 |  | 6.00
16 | Cc1cc(Br)sc1CNCCCNc1cc(=O)c2ccccc2[nH]1 |  | 7.00
17 | CN(C)S(=O)(=O)c1ccc(-c2cnc(N)c(-c3nc4ccc(F)cc4[nH]3)c2)cc1 |  | 6.00
18 | COc1ccc([N+](=O)[O-])cc1NC(=O)c1cc(Cl)ccc1O |  | 4.60
19 | COc1ccccc1-n1c(SCC(=O)Nc2ccc3c(c2)OCO3)nc2c(c1=O)SCC2 | > 40 µM (inactive) | 
20 | CC1=C(C(=O)Nc2ccc(Cl)cc2)C(c2ccncc2)n2ncc(C(=O)Nc3ccccc3)c2N1 (centres undefined) | > 40 µM (inactive) | 
21 | Cc1nc2c(-c3n[nH]c(-c4ccccc4N)n3)cccn2c1C |  | 5.60
22 | Cc1nc2c(-c3cccs3)c(C)nn2c(NCCO)c1C |  | 6.70
23 | O=C1NCc2cccc(Nc3nc(NC4CCC(O)CC4)ncc3Br)c21 (centres undefined) |  | 6.89

Row | Compound | IC50 | pIC50
24 | Cc1ccccc1NS(=O)(=O)c1ccc2[nH]cc(C(=O)NC3CCCC3)c(=O)c2c1 |  | 6.20
25 | Cc1c(C#N)c([N+](=O)[O-])nn1Cc1cccc(Cl)c1Cl |  | 4.60
26 | CCn1c(NC(=O)Cc2ccc(F)cc2)nc2ccccc21 |  | 5.30
27 | CN(C)c1ncc(-c2cncn2CCOc2ccc(Cl)cc2)cn1 | > 40 µM (inactive) | 
28 | Cc1cc(NC(=O)c2ccc([N+](=O)[O-])s2)ccc1Br |  | 5.30
29 | Nc1ncnc2c1ncn2[C@@H]1O[C@H](CO)C[C@H]1O |  | 8.00
30 | COc1ccc(NS(=O)(=O)c2cc(NC(=O)c3ccc([N+](=O)[O-])s3)ccc2OC)cc1 |  | 6.89
31 | Cc1cc2cncn2c(C2CCCCN2C(=O)c2cccs2)n1 (centres undefined) | > 40 µM (inactive) | 
32 | COc1ccnc2[nH]cc(-c3cc(C(=O)N[C@H](CO)c4ccccc4)co3)c12 |  | 7.89
33 | CNC(=O)C1Cc2ccccc2N1C(=O)COc1cccc(OC)c1 (centres undefined) |  | 6.00
34 | Cc1[nH]nc2c1C(c1ccc(OCc3ccccc3F)cc1)SCC(=O)N2 (centres undefined) | > 40 µM (inactive) | 
35 | CCCC(=O)N(Cc1ccccn1)c1nc2ccccc2s1 | > 40 µM (inactive) | 
36 | CS(=O)(=O)c1cccc(CNC(=O)c2cncc(N3CCN(c4ccc(F)cc4)CC3)c2)c1 | > 40 µM (inactive) | 
37 | Fc1ccc(OC2CC(NCc3cccc4cn[nH]c34)C2)cc1C(F)(F)F (centres undefined) |  | 5.00
38 | CC(C)(C)CC(=O)NCCc1csc(-c2ccc(F)cc2)n1 |  | 6.30
39 | CC(=O)Nc1ccc(-c2noc(CC3CCCN(Cc4cccc(F)c4C)C3)n2)cc1 (centres undefined) |  | 4.60
40 | CCOc1ccc(Nc2ccc(S(=O)(=O)N3CCN(C)CC3)cc2[N+](=O)[O-])cc1OCC |  | 4.49
41 | O=C(NCc1ccncc1)c1ccccc1N1CCCN(C(=O)Cc2ccc(F)c(F)c2)CC1 |  | 4.70
42 | COc1cccc(CCNC(=O)C(c2cn[nH]c2)N2CCN(c3ccc(Cl)cc3)CC2)c1 (centres undefined) |  | 4.49
43 | O=C(c1cccc(Nc2ncc(-c3ccc4c(c3)OCO4)cn2)c1)N1CCSC1 | > 40 µM (inactive) | 
44 | N#Cc1ccc(Br)cc1[N+](=O)[O-] |  | 6.70
45 | CC(C)COC(=O)Nc1ccc(N2CCC(CNS(=O)(=O)c3ccccc3)CC2)c(F)c1 |  | 4.70
46 | CC(C)(C)c1csc(NC(=O)c2ccc([N+](=O)[O-])s2)n1 |  | 5.80

Row | Compound | IC50 | pIC50
47 | Cc1ccc(NC(C)C(=O)Nc2ccc(C#N)cc2)cc1S(=O)(=O)N1CCCCC1 (centres undefined) |  | 5.00
48 | Cc1nc(C(=O)Nc2ccc3c(c2)OCO3)nn1-c1ccc(Cl)cc1 | > 40 µM (inactive) | 
49 | CN(C)S(=O)(=O)c1cccc(C(=O)Nc2nc(-c3ccccn3)cs2)c1 |  | 6.20
50 | Cc1cccnc1CN1CCN(CCCOc2ccc(-c3ccc(C(N)=O)cc3)cc2)CC1 | > 40 µM (inactive) | 
51 | CN(C)S(=O)(=O)c1ccc(Cl)c(C(=O)Nc2nc(-c3ccccn3)cs2)c1 |  | 6.40
52 | Cc1ccc2ccc(C(Nc3ccccn3)c3cccnc3)c(O)c2n1 (centres undefined) |  | 5.40
53 | CCN(Cc1ccncc1)Cc1ccc(NC(=O)c2cc(-c3ccc(F)cc3)n[nH]2)cc1 | > 40 µM (inactive) | 
54 | CCc1ccc2nc(NC(=O)c3cc(N4CCOCC4)ccn3)sc2c1 |  | 6.00
55 | O=C(NCCc1ccn(-c2ccccc2)n1)C1CCCCC1 |  | 6.49
56 | CC(CCc1ccccc1)NC(=O)CN(Cc1ccccn1)Cc1ccccn1 (centres undefined) |  | 5.30
57 | O=C(COc1ccccc1)Nc1ccccc1C(=O)Nc1nccs1 |  | 6.20
58 | O=C(Cn1cnc2c(-c3ccccc3)csc2c1=O)N1CCCCC1 |  | 6.00
59 | Cc1ccc(C)c(OC2CCN(C(=O)C(C)n3ccnc3)CC2)c1 (centres undefined) | > 40 µM (inactive) | 
60 | CN(Cc1cccnc1)Cc1ccc(N2CCN(C(=O)C3(c4ccc(Cl)cc4)CC3)CC2)nc1 |  | 4.60
61 | O=C(NNC(=O)c1ccccn1)c1ccc(-c2ccccc2)cc1 |  | 6.20
62 | COc1cccc(-c2c(C)nn(-c3nc(N)nc(-c4ccccn4)n3)c2N)c1 | > 40 µM (inactive) | 
63 | O=C(NCCc1csc(-c2ccc(F)cc2)n1)c1ccco1 |  | 6.30
64 | O=C(c1cccc(Cl)c1Cl)N1CCn2c1nc(-c1ccncc1)cc2=O |  | 4.49
65 | Nc1nc(-c2ccccn2)nc(-n2nc(-c3ccccc3)cc2N)n1 |  | 5.49
66 | O=[N+]([O-])c1ccc(-c2nnn(-c3ccc(Cl)cc3)n2)o1 |  | 6.00
67 | COc1ccc(-c2cnc(C)o2)cc1S(=O)(=O)Nc1ccc(C)cc1C |  | 4.49
68 | CS(=O)(=O)c1ccccc1C(=O)N(Cc1ccccc1)c1ccccc1 |  | 6.20
69 | O=C(CCc1ccc(-c2ccccc2)o1)N1CCN(c2ccc(O)cc2)CC1 |  | 4.40
